Measurements taken from patent US20040175763A1, “Crohn's disease antibody-binding peptide and method of examining crohn's disease” (priority 2001, published 2004).
No end group written: not given here.

Columns and labels:
[1] = tested on: Crohn's disease antibody (serum IgG); assay: MAP peptide ELISA of CDP-1a, CDP-5a and VATE-201 (Example 4); assay type: binding, human; settings: 20 Crohn's disease, 20 ulcerative colitis, 20 healthy volunteer serum samples
Description: Therefore, the following peptides (CDP-1a peptide, CDP-5a peptide, VATE-201 peptide) were respectively synthesized in the MAP form (multiple antigenic peptides) by the same procedure as described in Example 1(3) (FIG. 9), and in accordance with the protocol of Example 2(1), the reactivity of each MAP peptide to various serum samples (Crohn's disease patient sera, ulcerative colitis patient sera and healthy volunteer sera) was investigated by ELISA.
As test sera, 20 Crohn's disease patient serum samples were used and, as control sera, 20 ulcerative colitis serum samples and 20 healthy volunteer serum samples were used.

[2] = tested on: Crohn's disease antibody (serum IgG); assay: ELISA using each branched multiple antigenic peptide (MAP peptide) as the antigen; assay type: binding, human; settings: for Positive rate Ulcerative colitis patients: 20 ulcerative colitis patient sera; for Positive rate Ulcerative colitis patients / Positive rate Healthy volunteers: cut-off mean OD+5SD of 48 healthy volunteer sera; for reaction with ulcerative colitis patient sera or healthy volunteer sera: 20 ulcerative colitis, 48 healthy volunteer serum samples; for Positive rate Healthy volunteers: 48 healthy volunteer sera
Protocol: Using each MAP peptide (the MAP peptides of CDP-1, CDP-2, CDP-3, and CDP-4; see FIG. 2) obtained in Example 1 as the antigen peptide, the reactivity to each serum sample (Crohn's disease patient serum, ulcerative colitis patient serum, and healthy volunteer serum) was evaluated by ELISA.
In the first place, each MAP peptide was immobilized on a 96-well microtiter plate. Thus, this immobilization was carried out in accordance with the protocol which comprises dissolving each MAP peptide in bicarbonate buffer (50 mM, pH 9.6) at a concentration of 1 μg/ml to prepare a MAP solution, adding the solution to the antigen plate, 100 μl per well, then leaving the plate sitting at 4° C. overnight, washing it, adding 300 μl of casein solution ((D)-PBS containing 0.1% casein and 1% Triton X-100), and leaving the plate sitting again at 4° C. overnight.
(i) Using the MAP plates carrying the respective MAP peptides immobilized, the reactivity of each MAP peptide to 20 Crohn's disease patient serum samples, 20 ulcerative colitis patient serum samples and 48 healthy volunteer serum samples was verified by ELISA.
More particularly, a primary reaction was carried out by adding mixture containing 1 μl of the serum antibody and 100 μl of casein solution to each well of the MAP plate, and allowing the reaction to proceed at 37° C. for one hour. After completion of the primary reaction, the plate was washed 4 times and a 20,000-fold dilution of HRP-labeled anti-human IgG(Fc)-specific antibody in casein solution was added into the wells and incubated at 37° C. for one hour to carry out a secondary reaction. After completion of the secondary reaction, the plate was washed 4 times and a color development reaction was carried out. For detection, 100 μl of TMB solution was added to the plate and reacted at room temperature for 10 minutes, at the end of which time the reaction was stopped by adding 100 μl of TMB stop solution (1N sulfuric acid). The absorbance at OD 450 nm was measured with a plate reader to investigate the reactivity to each MAP plate for each serum. […] It can also be seen in FIG. 3 that the reactivity of each MAP peptide to Crohn's disease patient serum varied among different kinds of MAP peptides without consistency.
(ii) Then, using a large number of serum samples (96 Crohn's disease patient serum samples, 20 ulcerative colitis patient serum samples, and 48 healthy volunteer serum samples), the reactivity of the above MAP peptides (the MAP peptides of CDP-1, CDP-2, CDP-3, and CDP-4) was investigated by the same method as in (i) to evaluate the specificity of the respective peptides to Crohn's disease patient sera.

Crohn's disease antibody = assay: Reaction inhibition test with one amino acid-substituted MAP peptides on CDP3 MAP plate (Example 6(2)); assay type: binding, human; settings: inhibitor MAP peptide 100 μg/mL
Protocol: Referring to the amino acid sequence of CDP peptide, in order to determine the sequence necessary for the specific reactivity to Crohn's disease antibody, the following reaction inhibition test was performed using each of the one amino acid-substituted MAP peptides prepared as above as the reaction inhibitor.
More particularly, using the MAP plate prepared by immobilizing the MAP peptide of CDP3 (see Example 2(1)) as the antigen plate, the test was performed by 3 reaction steps. In the primary reaction, the Crohn's disease patient serum was diluted 100-fold with a sample diluent containing the one amino acid-substituted MAP peptide in a concentration of 100 μg/mL (0.1 M Tris-buffer containing 0.5 M sodium chloride, 1.5% casein, 2% normal goat serum and 0.2% Tween 20) and reacted at 25° C. for one hour. In the secondary reaction, 100 μL/well of the primary reaction mixture was added to the plate and reacted at 25° C. for one hour, after which the plate was washed 3 times. In the tertiary reaction, 100 μL/well of HRP-labeled anti-human IgG (Fc)-specific antibody diluted 5,000-fold in an enzyme-labeled antibody diluent (Tris buffer containing 0.14 M sodium chloride, 0.5% BAS, 5% normal goat serum and 0.05% Tween 20) was added to the plate, and reacted at 25° C. for 1 hour, followed by 3 rounds of washing. Detection was performed as in Example 2(1) to measure the reaction-inhibiting activity of the one amino acid-substituted MAP peptide.

[3] = tested on: Crohn's disease antibody (serum antibodies); assay: MAP antigen-ELISA of Z300 peptide (Example 6(4)); assay type: binding, human; settings: Crohn's disease patient serum No. 2, No. 7 and No. 8
Protocol: Therefore, in order to confirm that human nuclear protein (HZF300) is a protein simulated or mimicked by CDP3 peptide, the peptide (Z300 peptide) having the amino acid sequence of the 126-138 amino acid region of HZF300 was prepared in the form of a MAP peptide and the MAP antigen ELISA was carried out using 20 Crohn's disease patient serum samples, 20 ulcerative colitis patient serum samples, and 20 healthy volunteer serum samples.
First, each human serum was diluted 101-fold with the sample diluent (described hereinbefore) and 100 μL/well of the solution was added to the MAP plate prepared by immobilizing the said MAP peptide. Then, the procedure of the secondary reaction and subsequent operation described in Example 6(2) was followed to investigate the reactivity of the MAP peptide to various kinds of serum antibodies.

[4] = tested on: Crohn's disease antibody (serum antibodies); assay: MAP antigen-ELISA of TO3965 peptide (Example 7(4)); assay type: binding, human
Protocol: At this junction, in order to endorse the assumption that rice allergen proteins are proteins simulated or mimicked by CDP4 peptide, a peptide (TO3965 peptide) having an amino acid sequence corresponding to the 99-111 amino acid region of Rice seed allergen RA14 (FIG. 16) was prepared in the form of a MAP peptide and the MAP antigen-ELISA was performed using 20 Crohn's disease patient serum samples, 20 ulcerative colitis patient serum samples, and 20 healthy volunteer serum samples.
Except that a MAP antigen plate prepared by immobilizing the MAP peptide of TO3965 on the plate was used as the antigen plate, the MAP antigen-ELISA was carried out in otherwise the same manner as in Example 6(4).

[5] = tested on: Crohn's disease patient serum antibody; assay: Phage ELISA of CD-binding peptide display phage clones with serum samples; parameters: species or system human; settings: 20 Crohn's disease, 20 ulcerative colitis, 20 healthy volunteer serum samples
Protocol: Using the monoclonal CD-binding peptide display phage obtained as above, phage ELISA was carried out with the same healthy volunteer serum pool and Crohn's disease patient serum pool as used in the above biopanning (cf. (i)).
In the ELISA, an anti-phage antibody (Pharmacia) was immobilized on a 96-well microtiter plate in the first place. Specifically, this immobilization was carried out by adding an anti-phage antibody (Pharmacia) solution prepared in a 1 μg/ml concentration with (D)-PBS, to the plate, 100 μl per well. The plate was left sitting at 4° C. overnight and then washed, and after addition of 300 μl of blocking solution ((D)-PBS containing 1% BSA and 5% sorbitol), further left sitting at 4° C. overnight.
The primary reaction was carried out as follows. Thus, 10 μl of the phage solution in (ii) was added to 90 μl of phage ELISA buffer ((D)-PBS containing 1% BSA, 0.05% Tween 20 and 10% normal goat serum), the mixture was added to each well coated with said anti-phage antibody, and the reaction was conducted at 37° C. for 1 hour. After completion of the primary reaction, the plate was washed 4 times and the secondary reaction was carried out. The secondary reaction was performed by adding the mixture containing 1 μl of serum (healthy volunteer serum or Crohn's disease patient serum) and 100 μl of phage ELISA buffer, to each well, and allowing the reaction to proceed at 37° C. for 1 hour. After completion of the secondary reaction, the plate was washed 4 times and the tertiary reaction was carried out. The tertiary reaction was conducted by adding HRP (horseradish peroxidase)-labeled anti-human IgG (Fc)-specific antibody, diluted 40,000-fold in phage ELISA buffer (20 ng/ml) in advance, to the plate, 100 μl per well, and allowing the reaction to proceed at 37° C. for one hour. After completion of the tertiary reaction, the plate was washed and a color development reaction was carried out. The color development was conducted by adding TMB (3,3′,5,5′-tetramethylbenzidine) solution to the plate, allowing the reaction to proceed at room temperature for 10 minutes, and stopping the reaction with a stopper (1N sulfuric acid). The plate after reaction stopping was measured for absorbance (OD 450 nm) with a plate reader to evaluate the reactivity with the serum antibody.
For the 5 clones thus selected, the reactivity (ELISA) with the respective serum samples (Crohn's disease patient serum, ulcerative colitis patient serum, and healthy volunteer serum) was evaluated.

[6] = molecular target: Crohn's disease patient serum No. 7 (serum antibody); assay: inhibition ELISA; serum pre-incubated with 100 ug/mL MAP peptide, then CDP3 MAP plate; grade of reaction-inhibiting activity
[7] = molecular target: Crohn's disease patient serum No. 2 (serum antibody); assay: as above

Molecule: AEGELGLLAQQMDYADP [CDP-1a]
- ELISA reactivity to serum samples [1]: ELISA reactivities mutually alike

Molecule: AEGELRQSDGQYQMGDPA [CDP-3]
- Positive rate Ulcerative colitis patients [2]: 0% (0/20)
- reaction with ulcerative colitis patient sera or healthy volunteer sera [2]: did not appreciably react
- Positive rate Healthy volunteers [2]: 0% (0/48)

Molecule: A E G E L R Q S D G Q Y Q M (AEGELRQSDGQYQM) [CDP3]
- reaction-inhibiting activity, Patient serum sample No. 2 (Crohn's disease antibody): +++ (+++: reaction-inhibiting activity = 70%)
- reaction-inhibiting activity, Patient serum sample No. 7 (Crohn's disease antibody): +++ (+++: reaction-inhibiting activity = 70%)
- reaction-inhibiting activity, Patient serum sample No. 8 (Crohn's disease antibody): +++ (+++: reaction-inhibiting activity = 70%)
- reactivity of Crohn's disease patient sera to the peptide [3]: strong reactivity

Molecule: CDP4: equivalent of CD4 peptide, SEQ ID NO:34 (AEGELGGIYQDLVS; Phage Library)
- reactions with ulcerative colitis patient sera and healthy volunteer sera ([4]; 20 ulcerative colitis, 20 healthy volunteer serum samples): did not show definite reactions
- reactivity of Crohn's disease patient sera to the peptide ([4]; Crohn's disease patient serum Nos. 3, 6, 15, 17 and 20): strong reactivity

Molecule: AEGEL GLLAQQMDY ADPA [CD-1]
- specificity to Crohn's disease patient serum (phage ELISA reactivity) [5]: high specificity to Crohn's disease patient serum

Molecule: AEGELYRWLPPSSAGDPA [CDP-2]
- Positive rate Ulcerative colitis patients [2]: 5% (1/20)
- reaction with ulcerative colitis patient sera or healthy volunteer sera [2]: did not appreciably react
- Positive rate Healthy volunteers [2]: 2.1% (1/48)

Molecule: AEGEL YRWLPPSSA GDPA [CD-2]
- specificity to Crohn's disease patient serum (phage ELISA reactivity) [5]: high specificity to Crohn's disease patient serum

Molecule: A E G E L R Q S D A Q Y Q M (AEGELRQSDAQYQM) [CDP3-10]
- reaction-inhibiting activity, Patient serum sample No. 2 (Crohn's disease antibody): + (+: reaction-inhibiting activity between 30% and 50%)
- reaction-inhibiting activity, Patient serum sample No. 7 (Crohn's disease antibody): +++ (+++: reaction-inhibiting activity = 70%)
- reaction-inhibiting activity, Patient serum sample No. 8 (Crohn's disease antibody): +++ (+++: reaction-inhibiting activity = 70%)

Molecule: AEGELGLLAQQMDYADPA [CDP-1]
- Positive rate Ulcerative colitis patients [2]: 0% (0/20)
- reaction with ulcerative colitis patient sera or healthy volunteer sera [2]: did not appreciably react
- Positive rate Healthy volunteers [2]: 4.2% (2/48)

Molecule: AEGELRLVGQQVMQGDP [CDP-5a]
- ELISA reactivity to serum samples [1]: ELISA reactivities mutually alike

Molecule: AEGEL RLVGQQVMQ GDPA [CD-5]
- specificity to Crohn's disease patient serum (phage ELISA reactivity) [5]: high specificity to Crohn's disease patient serum

Molecule: AEGEL RQSDGQYQM GDPA [CD-3]
- specificity to Crohn's disease patient serum (phage ELISA reactivity) [5]: high specificity to Crohn's disease patient serum

Molecule: A E G E L R Q S D G Q Y Q A (AEGELRQSDGQYQA) [CDP3-14]
- reaction-inhibiting activity, Patient serum sample No. 2 (Crohn's disease antibody): +++ (+++: reaction-inhibiting activity = 70%)
- reaction-inhibiting activity, Patient serum sample No. 7 (Crohn's disease antibody): +++ (+++: reaction-inhibiting activity = 70%)
- reaction-inhibiting activity, Patient serum sample No. 8 (Crohn's disease antibody): +++ (+++: reaction-inhibiting activity = 70%)

Molecule: AEGELGGIYQDLVSGDPA [CDP-4]
- Positive rate Ulcerative colitis patients [2]: 5% (1/20)
- reaction with ulcerative colitis patient sera or healthy volunteer sera [2]: did not appreciably react
- Positive rate Healthy volunteers [2]: 4.2% (2/48)

Molecule: AEGELRQSAGQYQM (also: MAP: 8 copies as branches on a lysine core) [MAP peptide of CDP3-9]
- reaction-inhibiting activity [6]: 30 to 50%

Molecule: AEGELRQSDAQYQM (also: MAP: 8 copies as branches on a lysine core) [MAP peptide of CDP3-10]
- reaction-inhibiting activity [7]: 30 to 50%

Molecule: AEGELRQSDGAYQM (also: MAP: 8 copies as branches on a lysine core) [MAP peptide of CDP3-11]
- reaction-inhibiting activity [6]: 30 to 50%
